Laboratory results as given in BindingDB's records for doi:10.1074/jbc.M606784200 (Chul, 2007).

Tests used:
[1] = molecular target: T1, Aldo-keto reductase family 1 member C3 (Homo sapiens, UniProt P42330); assay: Scintillation Proximity Assay (SPA); settings: pH 6; 22 °C
T1 sequence (P42330 whole entry): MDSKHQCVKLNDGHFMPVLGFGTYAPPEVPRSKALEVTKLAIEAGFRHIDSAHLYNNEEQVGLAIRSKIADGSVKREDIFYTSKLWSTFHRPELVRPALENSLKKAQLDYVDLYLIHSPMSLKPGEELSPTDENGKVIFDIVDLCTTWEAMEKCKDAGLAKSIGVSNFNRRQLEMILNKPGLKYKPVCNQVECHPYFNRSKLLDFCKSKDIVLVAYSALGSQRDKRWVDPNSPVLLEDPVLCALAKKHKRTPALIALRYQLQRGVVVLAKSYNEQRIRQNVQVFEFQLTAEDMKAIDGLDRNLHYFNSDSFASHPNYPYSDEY
Description: SPA beads conjugated to anti-mouse IgG were incubated overnight in buffer with anti-testosterone monoclonal antibody. The enzymatic reaction was monitored by its conversion of 4-androstene-3, 17-dione to testosterone. The amount of [14C] testosterone produced in each well was determined by scintillation counting on a Perkin Elmer TopCount instrument and collected as DPMs. The data was then analyzed and percent inhibition and/or IC50 values, based on 10 point serially diluted curves in duplicate or triplicate, were calculated using Microsoft Excel and XLFit programs.

[2] = molecular target: T1, Aldo-keto reductase family 1 member C3; assay: Inhibition Study on the Interconversion of Testosterone to Androstenedione (4-dione); settings: pH 7.5; 37 °C
Description: A radioactive assay was used for the enzyme kinetics in the presence of EM1404 at different concentrations for its Ki determination. Reactions were initiated by the addition of enzyme to the reaction mixture containing substrate and test compounds. After the reaction, the steroids were extracted, separated by TLC migration, and analyzed by phosphorimaging. The Km for testosterone oxidation in the absence of EM-1404, and four apparent Km values in the presence of 1, 3, 10, and 25 nM EM-1404, were determined. Ki value was further determined by a plot of Km vs. the inhibitor concentration.

SMILES | IC50 [1] | Ki [2]
COCCOc1cc2c(cc1C(=O)ON)C1CC[C@@]3(C)C(CC[C@@]34CCC(C)(C)C(=O)O4)C1CC2 (stereo partly drawn) [(2R,15'S)-5'-(2-methoxyethoxy)-5,5,15'-trimethyl-6-oxospiro[oxane-2,14'-tetracyclo[8.7.0.0^{2,7}.0^{11,15}]heptadecane]-2',4',6'-triene-4'-carboxylate] | 9.5 nM | –
CC1(C)CC[C@@]2(CCC3C4CCc5cc(C(N)=O)ccc5C4CC[C@@]32C)OC1=O (stereo partly drawn) [(2R,15'S)-5,5,15'-trimethyl-6-oxospiro[oxane-2,14'-tetracyclo[8.7.0.0^{2,7}.0^{11,15}]heptadecane]-2',4',6'-triene-5'-carboxamide] | 3.2 nM | 6.9 nM
